This test has as its target V1 receptor (Rattus norvegicus, UniProt P30560). Kind of test: biochemical. Format: binding.

One may read the IC50 as the midpoint of a concentration-inhibition curve. Higher therefore signals weaker potency.

Chain of V1 receptor (P30560 whole entry): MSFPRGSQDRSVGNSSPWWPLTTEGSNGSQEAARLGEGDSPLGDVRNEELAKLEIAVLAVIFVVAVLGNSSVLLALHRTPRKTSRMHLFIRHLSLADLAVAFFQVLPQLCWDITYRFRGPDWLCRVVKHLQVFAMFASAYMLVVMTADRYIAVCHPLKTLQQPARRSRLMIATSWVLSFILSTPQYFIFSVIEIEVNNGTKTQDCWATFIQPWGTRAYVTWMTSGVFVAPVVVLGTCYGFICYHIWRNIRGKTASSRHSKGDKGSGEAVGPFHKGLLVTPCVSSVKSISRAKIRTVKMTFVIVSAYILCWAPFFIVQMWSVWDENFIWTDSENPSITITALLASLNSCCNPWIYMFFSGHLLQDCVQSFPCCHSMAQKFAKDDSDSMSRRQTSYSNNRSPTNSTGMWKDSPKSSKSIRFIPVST

`CN(CCO)CC(=O)NCCCCCOc1ccc(C(=O)N2CCC(N3C(=O)CCc4ccccc43)CC2)cc1` [Example 257, 1-{1-(4-[5-(2-(N-(2-Hydroxyethyl)-N-methylamino)acetylamino)pentyloxy]benzoyl)-4-piperidinyl}-3,4-dihydrocarbostyril] yielded an IC50 of 200 nM.

As to `CN(C)c1ccc(S(=O)(=O)NCCCCCOc2ccc(C(=O)N3CCC(N4C(=O)CCc5ccccc54)CC3)cc2)cc1` [Example 258, 1-{1-(4-[5-(4-Dimethylaminophenylsulfonylamino)pentyloxy]benzoyl)-4-piperidinyl]-3,4-dihydrocarbostyril], it took 470 nM to reach half-maximal inhibition (IC50).

Consider `CC(=O)Nc1ccc(C(=O)NCCCCCOc2ccc(C(=O)N3CCC(N4C(=O)CCc5ccccc54)CC3)cc2)cc1` [Example 259, 1-{1-(4-[5-(4-Acetylaminobenzoyl)aminopentyloxy]benzoyl)-4-piperidinyl}-3,4'-dihydrocarbostyril], for which it took 110 nM to reach half-maximal inhibition (IC50).

With `O=C(NCCCCCOc1ccc(C(=O)N2CCC(N3C(=O)CCc4ccccc43)CC2)cc1)C1CCC(O)C(O)C1` (stereo not drawn) [Example 260], 150 nM corresponded to half-maximal inhibition (IC50).

In the case of `CC(=O)OC1CCC(C(=O)NCCCCCOc2ccc(C(=O)N3CCC(N4C(=O)CCc5ccccc54)CC3)cc2)CC1OC(C)=O` (stereo not drawn) [Example 261, 1-{1-(4-[5-(3,4-Diacetoxycyclohexylcarbonyl)aminopentyloxy]benzoyl)-4-piperidinyl}-3,4-dihydrocarbostyril], it took 120 nM to reach half-maximal inhibition (IC50).

`Nc1ccc(C(=O)NCCCCCOc2ccc(C(=O)N3CCC(N4C(=O)CCc5ccccc54)CC3)cc2)cc1` [Example 262, 1-{1-(4-[5-(4-Aminobenzoyl)aminopentyloxy]benzoyl)-4-piperidinyl}-3,4-dihydrocarbostyril] returned an IC50 of 93 nM. This IC50 and that of the molecule before are within 1.5-fold of each other.

`O=C(c1ccc(OCCCCCNS(=O)(=O)c2ccc([N+](=O)[O-])cc2)cc1)N1CCC(N2C(=O)CCc3ccccc32)CC1` [Example 263, 1-{1-(4-[5-(4-Nitrophenylsulfonyl)aminopentyloxy]benzoyl)-4-piperidinyl}-3,4-dihydrocarbostyril] gave an IC50 of 360 nM. Compared with the last molecule, the IC50 is about 3.9-fold higher.

The molecule `Nc1ccc(S(=O)(=O)NCCCCCOc2ccc(C(=O)N3CCC(N4C(=O)CCc5ccccc54)CC3)cc2)cc1` [Example 264, 1-{1-(4-[5-(4-Aminophenylsulfonyl)aminopentyloxy]benzoyl)-4-piperidinyl}-3,4-dihydrocarbostyril] showed an IC50 of 160 nM.

The molecule `O=C(c1ccc(OCCCCCCN2CCC(N3CCCCC3)CC2)cc1)N1CCC(N2C(=O)CCc3ccccc32)CC1` [Example 265, 1-(1-(4-[6-(4-(1-Piperidinyl)-1-piperidinyl)hexyloxy]benzoyl)-4-piperidinyl}-3,4-dihydrocarbostyril.dioxalate] gave an IC50 of 19 nM.

As for `CN(CCCCCCOc1ccc(C(=O)N2CCC(N3C(=O)CCc4ccccc43)CC2)cc1)CCc1ccccn1` [Example 266, 1-{1-(4-[6-(N-(2-(2-Pyridyl)ethyl)-N-methylamino)hexyloxy]benzoyl)-4-piperidinyl}-3,4-dihydrocarbostyril], the IC50 was determined as 35 nM. Against the preceding molecule, the IC50 is about 1.8-fold higher.

Molecule `COC1(CNCCCCCCOc2ccc(C(=O)N3CCC(N4C(=O)CCc5ccccc54)CC3)cc2)OCC(O)C(O)C1O` (stereo not drawn) [Example 267, 1-{1-(4-[6-(N-(2-Methoxy-3,4,5-trihydroxytetrahydropyran-2-yl)methylamino)hexyloxy]benzoyl)-4-piperidinyl}-3,4-dihydrocarbostyril] yielded a half-maximal inhibitory concentration (IC50) of 82 nM.

Consider `CCN(CC)CCCCCCCOc1ccc(C(=O)N2CCC(N3C(=O)CCc4ccccc43)CC2)cc1` [Example 268, 1-{1-(4-[7-(Diethylamino)heptyloxy]benzoyl)-4-piperidinyl}-3,4-dihydrocarbostyril], for which the concentration for half-maximal inhibition (IC50) came to 27 nM. This IC50 is about 3-fold lower than that of the molecule before.

`O=C(CCCCCOc1ccc(C(=O)N2CCC(N3C(=O)CCc4ccccc43)CC2)cc1)N1CCN(Cc2ccccc2)CC1` [Example 269, 1-{1-(4-[5-(4-Benzyl-1-piperazinylcarbonyl)pentyloxy]benzoyl)-4-piperidinyl}-3,4-dihydrocarbostyril] showed a half-maximal inhibitory concentration (IC50) of 160 nM.

`O=C(CCCCCOc1ccc(C(=O)N2CCC(N3C(=O)CCc4ccccc43)CC2)cc1)N1CCNCC1` [Example 270, 1-{1-(4-[5-(1-Piperazinylcarbonyl)pentyloxy]benzoyl)-4-piperidinyl}-3,4-dihydrocarbostyril] came in with an IC50 of 44 nM.

For the molecule `CC(=O)N1CCN(C(=O)CCCCCOc2ccc(C(=O)N3CCC(N4C(=O)CCc5ccccc54)CC3)cc2)CC1` [Example 271, 1-{1-(4-[5-(4-Acetyl-1-piperazinylcarbonyl)pentyloxy]benzoyl)-4-piperidinyl}-3,4-dihydrocarbostyril], inhibition was half-maximal at 42 nM (IC50).

`CN1CCN(C(=O)CCCCCOc2ccc(C(=O)N3CCC(N4C(=O)CCc5ccccc54)CC3)cc2)CC1` [Example 272, 1-{1-(4-[5-(4-Methyl-1-piperazinylcarbonyl)pentyloxy]benzoyl)-4-piperidinyl}-3,4-dihydrocarbostyril] returned a half-maximal inhibitory concentration (IC50) of 38 nM.

`C=CCN1CCN(C(=O)CCCCCOc2ccc(C(=O)N3CCC(N4C(=O)CCc5ccccc54)CC3)cc2)CC1` [Example 273, 1-{1-(4-[5-(4-Allyl-1-piperazinylcarbonyl)pentyloxy]benzoyl)-4-piperidinyl}-3,4-dihydrocarbostyril] yielded an IC50 of 57 nM. Compared with the last molecule, the IC50 is about 1.5-fold higher.

`O=C(O)C1CCN(C(=O)CCCCCOc2ccc(C(=O)N3CCC(N4C(=O)CCc5ccccc54)CC3)cc2)CC1` [Example 274, 1-{1-(4-[5-(4-Carboxy-1-piperidinylcabonyl)pentyloxy]benzoyl)-4-piperidinyl}-3,4-dihydrocarbostyril] yielded an IC50 of 490 nM.

`NC(=O)C1CCN(C(=O)CCCCCOc2ccc(C(=O)N3CCC(N4C(=O)CCc5ccccc54)CC3)cc2)CC1` [Example 275, 1-{1-(4-[5-(4-Carbamoyl-1-piperidinylcarbonyl)pentyloxy]benzoyl)-4-piperidinyl}-3,4-dihydrocarbostyril] showed an IC50 of 46 nM.

In turn, `CN(C)C(=O)C1CCN(C(=O)CCCCCOc2ccc(C(=O)N3CCC(N4C(=O)CCc5ccccc54)CC3)cc2)CC1` [Example 276, 1-{1-(4-[5-(4-Dimethylaminocarbonyl-1-piperidinylcarbonyl)pentyloxy]benzoyl)-4-piperidinyl}-3,4-dihydrocarbostyril] had a 50% inhibitory concentration (IC50) of 110 nM. Compared with the last molecule, the IC50 is about 2.4-fold higher.

For the molecule `Cn1ccnc1SCCCCCOc1ccc(C(=O)N2CCC(N3C(=O)CCc4ccccc43)CC2)cc1` [Example 278, 1-{1-(4-[5-(1-Methyl-2-imidazolylthio)pentyloxy]benzoyl)-4-piperidinyl}-3,4-dihydrocarbostyril], the 50% inhibitory concentration (IC50) was 110 nM.

For `O=C(c1ccc(OCCCCCSc2ncccn2)cc1)N1CCC(N2C(=O)CCc3ccccc32)CC1` [Example 279, 1-{1-(4-[5-(2-Pyrimidylthio)pentyloxy]benzoyl)-4-piperidinyl}-3,4-dihydrocarbostyril], 180 nM corresponded to half-maximal inhibition (IC50).

For the molecule `O=C(c1ccc(OCCCCC[S+]([O-])c2ncccn2)cc1)N1CCC(N2C(=O)CCc3ccccc32)CC1` (stereo not drawn) [Example 280, 1-{1-(4-[5-(2-Pyrimidylsufinyl)pentyloxy]benzoyl)-4-piperidinyl}-3,4-dihydrocarbostyril], it took 87 nM to reach half-maximal inhibition (IC50).

On to `O=C(c1ccc(OCCCCCS(=O)(=O)c2ncccn2)cc1)N1CCC(N2C(=O)CCc3ccccc32)CC1` [Example 281, 1-(1-(4-[5-(2-Pyrimidylsulfonyl)pentyloxy]benzoyl)-4-piperidinyl}-3,4-dihydrocarbostyril], for which 54 nM corresponded to half-maximal inhibition (IC50).

Source of the values: US5436254A, “Carbostyril derivatives” (Otsuka Pharmaceutical Company, Ltd., priority 1989, dated 1995).
